Experiment [1] deals with T1, AncMsPFK (synthetic construct, UniProt Z9Y5W3ZEF0).
T1 construct: synthetic gene in pET-15, N-terminal polyhistidine tag, E. coli BL21; heat step and Ni-Sepharose; 490 residues expected, one molecule per asymmetric unit
T1 sequence (Z9Y5W3ZEF0 22-511): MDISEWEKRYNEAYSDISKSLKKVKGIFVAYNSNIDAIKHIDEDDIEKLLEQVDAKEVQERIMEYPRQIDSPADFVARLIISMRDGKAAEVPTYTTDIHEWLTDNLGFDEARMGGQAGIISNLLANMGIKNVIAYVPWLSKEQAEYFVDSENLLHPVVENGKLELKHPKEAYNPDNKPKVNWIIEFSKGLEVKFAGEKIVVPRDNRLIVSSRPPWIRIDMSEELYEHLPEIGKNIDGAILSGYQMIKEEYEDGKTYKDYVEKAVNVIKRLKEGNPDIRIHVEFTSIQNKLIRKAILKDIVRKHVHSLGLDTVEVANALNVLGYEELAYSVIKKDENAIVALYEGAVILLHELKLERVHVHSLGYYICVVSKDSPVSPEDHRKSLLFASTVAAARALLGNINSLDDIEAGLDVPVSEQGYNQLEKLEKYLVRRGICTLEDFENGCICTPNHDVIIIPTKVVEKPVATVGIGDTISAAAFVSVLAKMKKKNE
Description: X-ray crystallography, […] Å. The class given is binding. The following applies: closed conformation.

The target in experiment [2] is T2, AncMsPFK (synthetic construct, UniProt Z9Y5W3ZEF0, E111A).
T2 construct: synthetic gene in pET-15, N-terminal polyhistidine tag, E. coli BL21; heat step and Ni-Sepharose; 490 residues expected, one molecule per asymmetric unit
T2 sequence (Z9Y5W3ZEF0 22-511 E111A): T1 sequence (Z9Y5W3ZEF0 22-511) with E90A
As to the kind of experiment: coupled NADH oxidation assay, […] nm. The conditions noted are these: 1 mM ADP, 2 mM MgCl2, 100 mM Pipes pH 6.5, 25 °C; substrate inhibition fit. The experiment is classed as biochemical.

Experiment [3] deals with T1, AncMsPFK. As to the kind of experiment: coupled NADH oxidation assay, […] nm. The following applies: 1 mM ADP, 2 mM MgCl2, 100 mM Pipes pH 6.5, 25 °C. The experiment is classed as biochemical.

The structures appear in SMILES notation. Where a chain is given by its changes, count along the chain named.

On to `Nc1ncnc2c1ncn2[C@@H]1O[C@H](COP(=O)(O)OP(=O)(O)S)[C@@H](O)[C@H]1O` (stereo partly shown) [ADPβS], for which the “X-ray crystallography, 3.12 Å” value in experiment [1] (ternary complex with F6P and Mg2+, nucleotide site) is recorded as “The structure of the AncMsPFK in complex with F6P-Mg-ADPβS was solved by molecular replacement”.
Regarding `O=P(O)(O)OC[C@H]1OC(O)(CO)[C@@H](O)[C@@H]1O` (stereo partly shown) [F6P], the “X-ray crystallography, 3.12 Å” value in experiment [1] (ternary complex with Mg-ADPβS, active site) is given as “The structure of the AncMsPFK in complex with F6P-Mg-ADPβS was solved by molecular replacement”. Also, the “F6P / KM mM” value is recorded as 0.09 ± 9.6 × 10^−3 mM in experiment [2] and 0.014 ± 1.5 × 10^−3 mM in experiment [3].

Source of the values: paper PMC7948494, “Structure of an ancestral ADP-dependent kinase with fructose-6P reveals key residues for binding, catalysis, and ligand-induced conformational changes” (The Journal of Biological Chemistry, 2020).
